In ChEMBL document CHEMBL3885861, “Open TG-GATES”:

Species on record: Rattus norvegicus
Experiment: Open TG-GATES - Regimen: Daily Repeat
Assay type: toxicity, organism-based, Sprague-Dawley
Design: regimen Daily Repeat, gender Male, age 6 weeks
Conditions: in vivo, po, 0 mg/kg, […], route gavage, dose level Control; for KIDNEY_L / KIDNEY_R / KIDNEY_TOTAL: tissue Kidney; for LIVER: tissue Liver; for A/G / ALP / ALT / AST / BUN / CRE / Ca / Cl / DBIL / GLC / IP / K / LDH / Na / PL / RALB / TBIL / TC / TG / TP / gamma-GTP: tissue Plasma

CN(C)[C@@H]1C(O)=C(C(N)=O)C(=O)[C@@]2(O)C(O)=C3C(=O)c4c(O)cccc4[C@@](C)(O)[C@H]3C[C@@H]12 [TETRACYCLINE]
Lym (tissue Blood, time 28 day): 83% | MCH (tissue Blood, time 28 day): 19.6 pg | MCHC (tissue Blood, time 28 day): 33.6% | MCV (tissue Blood, time 28 day): 58.3 fL | Mono (tissue Blood, time 28 day): 4.4% | Neu (tissue Blood, time 28 day): 11.6% | PT (tissue Blood, time 28 day): 11.8 s | Plat (tissue Blood, time 28 day): 100.7 x10_4/uL | RBC (tissue Blood, time 28 day): 753.4 x10_4/ul | Ret (tissue Blood, time 28 day): 2.9% | WBC (tissue Blood, time 28 day): 164.6 x10_2/uL | KIDNEY_L (time 7 day): 1 g | KIDNEY_R (time 7 day): 1 g | KIDNEY_TOTAL (time 7 day): 2 g | KIDNEY_L (time 14 day): 1.2 g | KIDNEY_R (time 14 day): 1.2 g | KIDNEY_TOTAL (time 14 day): 2.3 g | KIDNEY_L (time 28 day): 1.3 g | KIDNEY_R (time 28 day): 1.3 g | KIDNEY_TOTAL (time 28 day): 2.7 g | LIVER (time 7 day): 10.9 g | LIVER (time 14 day): 13.5 g | LIVER (time 28 day): 16 g | A/G (time 7 day): 2.1 | ALP (time 7 day): 1017 IU/L | ALT (time 7 day): 38.2 IU/L | AST (time 7 day): 63.2 IU/L | BUN (time 7 day): 19 mg/dL | CRE (time 7 day): 0.6 mg/dL | Ca (time 7 day): 11 mg/dL | Cl (time 7 day): 106.4 meq/L | DBIL (time 7 day): 0.006 mg/dL | GLC (time 7 day): 184.4 mg/dL | IP (time 7 day): 8.1 mg/dL | K (time 7 day): 6.3 meq/L | LDH (time 7 day): 107.6 IU/L | Na (time 7 day): 139 meq/L | PL (time 7 day): 157.8 mg/dL | RALB (time 7 day): 3.9 g/dL | TBIL (time 7 day): 0.3 mg/dL | TC (time 7 day): 83.4 mg/dL | TG (time 7 day): 90.8 mg/dL | TP (time 7 day): 5.7 g/dL | gamma-GTP (time 7 day): 1 IU/L | A/G (time 14 day): 1.8 | ALP (time 14 day): 903 IU/L | ALT (time 14 day): 30.6 IU/L | AST (time 14 day): 67.4 IU/L | BUN (time 14 day): 18.6 mg/dL | CRE (time 14 day): 0.5 mg/dL | Ca (time 14 day): 11.1 mg/dL | Cl (time 14 day): 103.2 meq/L | DBIL (time 14 day): 0.01 mg/dL | GLC (time 14 day): 175.2 mg/dL | IP (time 14 day): 7.9 mg/dL | K (time 14 day): 4.7 meq/L | LDH (time 14 day): 100.6 IU/L | Na (time 14 day): 141 meq/L | PL (time 14 day): 154.6 mg/dL | RALB (time 14 day): 4 g/dL | TBIL (time 14 day): 0.3 mg/dL | TC (time 14 day): 72.2 mg/dL | TG (time 14 day): 134.8 mg/dL | TP (time 14 day): 6.2 g/dL | gamma-GTP (time 14 day): 1.6 IU/L | A/G (time 28 day): 1.7 | ALP (time 28 day): 807.8 IU/L | ALT (time 28 day): 31.2 IU/L | AST (time 28 day): 58.2 IU/L | BUN (time 28 day): 20.8 mg/dL | CRE (time 28 day): 0.6 mg/dL | Ca (time 28 day): 10.9 mg/dL | Cl (time 28 day): 106.2 meq/L | DBIL (time 28 day): 0.016 mg/dL | GLC (time 28 day): 175.2 mg/dL | IP (time 28 day): 7.2 mg/dL | K (time 28 day): 4.6 meq/L | LDH (time 28 day): 91.4 IU/L | Na (time 28 day): 140 meq/L | PL (time 28 day): 164 mg/dL | RALB (time 28 day): 3.8 g/dL | TBIL (time 28 day): 0.3 mg/dL | TC (time 28 day): 78.2 mg/dL | TG (time 28 day): 154.8 mg/dL | TP (time 28 day): 6.1 g/dL | gamma-GTP (time 28 day): 1 IU/L
